Results on 16 molecules are retold here after patent publication US20250302842A1, “HETEROCYCLIC COMPOUNDS USEFUL FOR TREATMENT OF CANCERS” (JUBILANT EPIPAD LLC, priority 2020, published 2025).

Experiment [1] addresses T1, PAD4 enzyme (Homo sapiens (Human), UniProt Q9UM07). The experiment is described as follows: FP Binding assay. Particulars: fluorescein labelled probe JPAD-00085, 60 minutes. As for the experimental part:
Binding of compounds with PAD4 enzyme was detected by FP assay. PAD4 enzyme was diluted to 1 uM in assay buffer (100 mM HEPES, 50 mM NaCl, 1 mM DTT, 5% Glycerol and 1 mM CHAPS) and added to wells containing various concentration of compounds or DMSO vehicle (1%) in a 384 well black plate. 10 nM of fluorescein labelled probe (JPAD-00085) was added to the plate. Assay plate was incubated for 60 minutes at room temperature before measuring FP reading at FP module (ex 485/2em 535 nm) on Pherastar. IC50 was calculated using XL-fit software model 205. (Ref: Nat Chem Biol. 2015 March; 11 (3): 189-91).

In experiment [2] the target is T1, PAD4 enzyme. The experiment in a line: Ammonia Release Biochemical Assay (citrullination detected via ammonia release). Particulars: BAEE substrate, 60-min preincubation, read-out: NH3 release. As for the experimental part:
Ammonia Release Biochemical Assay
Citrullination assay was detected via ammonia release. PAD4 enzyme was diluted to 120 nM in assay buffer (100 mM HEPES, 50 mM NaCl, 2 mM DDT, 0.6 mg/mL BSA, pH 7.4) added to wells containing various concentration of compound or DMSO vehicle (1% final) in black 384 well plate. Following a 60-min preincubation at room temperature, the reaction was initiated by the addition of substrate (1.5 mM BAEE in 200 mM HEPES, 50 mM NaCl, 350 uM CaCl2, 2 mM, pH 7.4). The reaction was stopped after 60 min by addition of stop/detection buffer containing 50 mM EDTA, 2.6 mM of o-phthaladehyde and 2.6 mM DTT. Assay was incubated at room temperature for 90 min before measuring fluorescence's (2ex 405/2em 460 nm) on Tecan reader. IC50 was calculated using XL-fit software model 205. (Ref: Nat Chem Biol. 2015 March;11 (3): 189-91).

Some results are limits rather than exact numbers.

T1 sequence (Q9UM07 whole entry): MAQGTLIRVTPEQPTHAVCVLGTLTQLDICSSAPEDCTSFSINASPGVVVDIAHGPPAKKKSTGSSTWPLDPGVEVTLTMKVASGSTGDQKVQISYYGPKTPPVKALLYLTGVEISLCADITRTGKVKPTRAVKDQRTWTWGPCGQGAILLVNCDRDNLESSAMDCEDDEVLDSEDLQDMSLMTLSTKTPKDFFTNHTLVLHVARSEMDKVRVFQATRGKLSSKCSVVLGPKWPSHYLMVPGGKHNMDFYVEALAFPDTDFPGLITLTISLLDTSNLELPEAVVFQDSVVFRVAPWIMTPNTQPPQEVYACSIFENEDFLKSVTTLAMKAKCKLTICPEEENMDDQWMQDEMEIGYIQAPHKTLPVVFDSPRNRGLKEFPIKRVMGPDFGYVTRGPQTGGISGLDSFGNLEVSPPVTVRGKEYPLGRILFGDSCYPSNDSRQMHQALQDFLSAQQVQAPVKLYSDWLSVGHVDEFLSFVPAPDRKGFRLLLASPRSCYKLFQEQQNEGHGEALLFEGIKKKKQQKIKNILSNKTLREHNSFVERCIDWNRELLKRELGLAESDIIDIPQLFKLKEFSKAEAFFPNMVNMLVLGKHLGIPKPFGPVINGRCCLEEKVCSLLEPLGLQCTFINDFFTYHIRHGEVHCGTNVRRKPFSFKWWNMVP

In experiment [1], `N[C@@H]1CCCN(C(=O)c2cc3c4c(c2)nc(-c2cc5ccccc5n2Cc2ccccc2F)n4CCO3)C1` [Example 14, (R)-(3-aminopiperidin-1-yl)(2-(1-(2-fluorobenzyl)-1H-indol-2-yl)-3,4-dihydro-5-oxa-1,2a-diazaacenaphthylene-7-yl)methanone] displayed an IC50 not above 1000 nM.
The same measure, in the same setting: with `Cc1cccc2cc(-c3nc4cc(C(=O)N5CCC[C@@H](N)C5)cc5c4n3CCO5)n(CC3CC3)c12` [Example 8, (R)-(3-aminopiperidin-1-yl)(2-(1-(cyclopropylmethyl)-7-methyl-1H-indol-2-yl)-3,4-dihydro-5-oxa-1,2a-diazaacenaphthylen-7-yl)methanone] the figure was not above 1000 nM.
On the same count and under the same terms, with `N[C@@H]1CCCN(C(=O)c2cc3c4c(c2)nc(-c2cc5ccccc5n2Cc2ccccn2)n4CCO3)C1` [Example 11, (R)-(3-aminopiperidin-1-yl)(2-(1-(pyridine-2-ylmethyl)-1H-indol-2-yl)-3,4-dihydro-5-oxa-1,2a-diazaacenaphthylen-7-yl)methanone] the figure was not above 1000 nM.
`CN1CCn2c(-c3cc4ccccc4n3CC3CC3)nc3cc(C(=O)N4CCC[C@@H](N)C4)cc1c32` [Example 72, R-(3-aminopiperidin-1-yl)(2-(1-(cyclopropylmethyl)-1H-indol-2-yl)-6-methyl-5,6-dihydro-4H-imidazo[1,5,4-de]quinoxalin-8-yl)methanone]: the IC50 in experiment [1] was not above 1000 nM.
The same measure, in the same setting: with `COc1ccc(Cn2c(-c3nc4cc(C(=O)N5CCC[C@@H](N)C5)cc5c4n3CCO5)cc3ccccc32)cc1` [Example 19, (R)-(3-aminopiperidin-1-yl)(2-(1-(4-methoxybenzyl)-1H-indol-2-yl)-3,4-dihydro-5-oxa-1,2a-diazaacenaphthylen-7-yl)methanone] the figure was not above 1000 nM.
Still for that read-out and setting: with `N[C@@H]1CCCN(C(=O)c2cc3c4c(c2)nc(-c2cc5ccccc5n2Cc2ccncc2)n4CCO3)C1` [Example 10, (R)-(3-aminopiperidin-1-yl)(2-(1-(pyridin-4-ylmethyl)-1H-indol-2-yl)-3,4-dihydro-5-oxa-1,2a-diazaacenaphthylene-7-yl)methanone] the figure was not above 1000 nM; with `NCC1CCCCN1C(=O)c1cc2c3c(c1)nc(-c1cc4ccccc4n1CC1CC1)n3CCO2` (stereo not shown) [Example 4, (2-(aminomethyl)piperidin-1-yl)(2-(1-(cyclopropylmethyl)-1H-indol-2-yl)-3,4-dihydro-5-oxa-1,2a-diazaacenaphthylen-7-yl)methanone], not below 10000 nM.
In experiment [1], `N[C@@H]1CCCN(C(=O)c2cc3c4c(c2)nc(-c2cc5ccccc5n2CC2CC2)n4CCN3)C1` [Example 63, (R)-(3-aminopiperidin-1-yl)(2-(1-(cyclopropylmethyl)-1H-indol-2-yl)-5,6-dihydro-4H-imidazo[1,5,4-de]quinoxalin-8-yl)methanone] had an IC50 not above 1000 nM.
With `COc1ccc(Cn2c(-c3nc4cc(C(=O)N5CCC[C@@H](N)C5)cc5c4n3CCO5)cc3cccc(Cl)c32)cc1` [Example 39, (R)-(3-aminopiperidin-1-yl)(2-(7-chloro-1-(4-methoxybenzyl)-1H-indol-2-yl)-3,4-dihydro-5-oxa-1,2a-diazaacenaphthylen-7-yl)methanone], the IC50 in experiment [2] is not above 1000 nM.
Turning to `N[C@@H]1CCCN(C(=O)c2cc3c4c(c2)nc(-c2cc5cccc(Cl)c5n2CC2CCC2)n4CCO3)C1` [Example 53, (R)-(3-aminopiperidin-1-yl)(2-(7-chloro-1-(cyclobutylmethyl)-1H-indol-2-yl)-3,4-dihydro-5-oxa-1,2a-diazaacenaphthylen-7-yl)methanone], the IC50 in experiment [2] is not above 1000 nM.
The same measure, in the same setting: with `N[C@@H]1CCCN(C(=O)c2cc3c4c(c2)nc(-c2cc5ccccc5n2CC2CC2)n4CCO3)C1` [Example 1, (R)-(3-aminopiperidin-1-yl)(2-(1-(cyclopropylmethyl)-1H-indol-2-yl)-3,4-dihydro-5-oxa-1,2a-diazaacenaphthylen-7-yl)methanone] the figure was not above 1000 nM.
In experiment [1], `COc1ccc2cc(-c3nc4cc(C(=O)N5CCC[C@@H](N)C5)cc5c4n3CCN5)n(CC3CC3)c2c1` [Example 73, (R)-(3-aminopiperidin-1-yl)(2-(1-(cyclopropylmethyl)-6-methoxy-1H-indol-2-yl)-5,6-dihydro-4H-imidazo[1,5,4-de]quinoxalin-8-yl)methanone] registered an IC50 not above 1000 nM.
Regarding `CCc1c(-c2nc3cc(C(=O)N4CCC[C@@H](N)C4)cc4c3n2CCO4)sc2ccccc12` [Example 12, (R)-(3-aminopiperidin-1-yl)(2-(3-ethylbenzo[b]thiophen-2-yl)-3,4-dihydro-5-oxa-1,2a-diazaacenaphthylen-7-yl)methanone], the IC50 in experiment [1] is not above 1000 nM.
Consider `N[C@@H]1CCCN(C(=O)c2cc3c4c(c2)nc(-c2cc5cc(F)c(F)cc5n2CC2CC2)n4CCN3)C1` [Example 77, (R)-(3-aminopiperidin-1-yl)(2-(1-(cyclopropylmethyl)-5,6-difluoro-1H-indol-2-yl)-5,6-dihydro-4H-imidazo[1,5,4-de]quinoxalin-8-yl)methanone], for which the IC50 in experiment [1] is not above 1000 nM.
Regarding `N[C@@H]1CCCN(C(=O)c2cc3c4c(c2)nc(-c2cc5ccccc5n2CC2CCC2)n4CCO3)C1` [Example 41, (R)-(3-aminopiperidin-1-yl)(2-(1-(cyclobutylmethyl)-1H-indol-2-yl)-3,4-dihydro-5-oxa-1,2a-diazaacenaphthylen-7-yl)methanone], the IC50 in experiment [2] was not above 1000 nM.
With `N[C@@H]1CCCN(C(=O)c2cc3c4c(c2)nc(-c2cc5cc(F)ccc5n2CC2CC2)n4CCN3)C1` [Example 64, R-(3-aminopiperidin-1-yl)(2-(1-(cyclopropylmethyl)-5-fluoro-1H-indol-2-yl)-5,6-dihydro-4H-imidazo[1,5,4-de]quinoxalin-8-yl)methanone], the IC50 in experiment [1] was not above 1000 nM.
